Assay results: ChEMBL document CHEMBL3885881, “DrugMatrix”

Species on record: Rattus norvegicus
Type: toxicity, organism-based, Sprague-Dawley
Conditions: in vivo, po, route oral GAVAGE, […]; for ABSOLUTE EOSINOPHIL / ABSOLUTE LYMPHOCYTE / ABSOLUTE MONOCYTE / ABSOLUTE SEGMENTED NEUTROPHIL / BASOPHIL / EOSINOPHIL / ERYTHROCYTE COUNT / HEMATOCRIT / HEMOGLOBIN / LYMPHOCYTE / MEAN CORPUSCULAR HEMOGLOBIN CONCENTRATION / MEAN CORPUSCULAR VOLUME / NEUTROPHIL / NUCLEATED RED BLOOD CELLS: tissue Blood; for ALANINE AMINOTRANSFERASE / ALBUMIN / ALKALINE PHOSPHATASE / ASPARTATE AMINOTRANSFERASE / BLOOD UREA NITROGEN / CARBON DIOXIDE / CHOLESTEROL / CREATINE PHOSPHOKINASE / CREATININE / LACTATE DEHYDROGENASE / POTASSIUM / TOTAL BILIRUBIN / TOTAL PROTEIN / PHOSPHORUS: tissue Plasma
[1] = 0 mg/kg, 6 h, vehicle control, dose level Control, time 0.25 day
[2] = 0 mg/kg, 24 h, vehicle control, dose level Control, time 1 day
[3] = 100 mg/kg, 6 h, dose level M1, time 0.25 day

Description: DrugMatrix - Regimen: Single

CC(C)OC(=O)C(C)(C)Oc1ccc(C(=O)c2ccc(Cl)cc2)cc1 [FENOFIBRATE]
ABSOLUTE EOSINOPHIL [1]: 0 CELLS/uL
ABSOLUTE LYMPHOCYTE [1]: 8631 CELLS/uL
ABSOLUTE MONOCYTE [1]: 171.17 CELLS/uL
ABSOLUTE SEGMENTED NEUTROPHIL [1]: 1214.5 CELLS/uL
BASOPHIL [1]: 0%
EOSINOPHIL [1]: 0%
ERYTHROCYTE COUNT [1]: 5.42 x10E6/uL
HEMATOCRIT [1]: 34.7%
HEMOGLOBIN [1]: 13.67 G/DL
LYMPHOCYTE [1]: 86.17%
MEAN CORPUSCULAR HEMOGLOBIN CONCENTRATION [1]: 39.42 G/DL
MEAN CORPUSCULAR VOLUME [1]: 64.12 fL
NEUTROPHIL [1]: 12.17%
NUCLEATED RED BLOOD CELLS [1]: 0 /100WBC
ALANINE AMINOTRANSFERASE [1]: 61 u/L
ALBUMIN [1]: 4.67 G/DL
ALKALINE PHOSPHATASE [1]: 312.5 u/L
ASPARTATE AMINOTRANSFERASE [1]: 117.5 u/L
BLOOD UREA NITROGEN [1]: 8.67 mg/dL
CARBON DIOXIDE [1]: 26.33 mmol/L
CHOLESTEROL [1]: 72 mg/dL
CREATINE PHOSPHOKINASE [1]: 283.33 u/L
CREATININE [1]: 0.28 mg/dL
LACTATE DEHYDROGENASE [1]: 95.33 u/L
POTASSIUM [1]: 5.75 MEQ/L
TOTAL BILIRUBIN [1]: 0.3 mg/dL
TOTAL PROTEIN [1]: 5.43 G/DL
ABSOLUTE EOSINOPHIL [2]: 90.83 CELLS/uL
ABSOLUTE LYMPHOCYTE [2]: 14725.17 CELLS/uL
ABSOLUTE MONOCYTE [2]: 220 CELLS/uL
ABSOLUTE SEGMENTED NEUTROPHIL [2]: 1080.67 CELLS/uL
BASOPHIL [2]: 0%
EOSINOPHIL [2]: 0.67%
ERYTHROCYTE COUNT [2]: 5.3 x10E6/uL
HEMATOCRIT [2]: 33.4%
HEMOGLOBIN [2]: 13.4 G/DL
LYMPHOCYTE [2]: 91.17%
MEAN CORPUSCULAR HEMOGLOBIN CONCENTRATION [2]: 40.12 G/DL
MEAN CORPUSCULAR VOLUME [2]: 63.05 fL
NEUTROPHIL [2]: 6.67%
NUCLEATED RED BLOOD CELLS [2]: 0 /100WBC
ALANINE AMINOTRANSFERASE [2]: 69 u/L
ALBUMIN [2]: 4.33 G/DL
ALKALINE PHOSPHATASE [2]: 269 u/L
ASPARTATE AMINOTRANSFERASE [2]: 83.67 u/L
BLOOD UREA NITROGEN [2]: 14 mg/dL
CARBON DIOXIDE [2]: 29 mmol/L
CHOLESTEROL [2]: 66.67 mg/dL
CREATINE PHOSPHOKINASE [2]: 355 u/L
CREATININE [2]: 0.18 mg/dL
LACTATE DEHYDROGENASE [2]: 123.33 u/L
PHOSPHORUS [2]: 8.83 mg/dL
POTASSIUM [2]: 6.06 MEQ/L
TOTAL BILIRUBIN [2]: 0.2 mg/dL
TOTAL PROTEIN [2]: 5.72 G/DL
ABSOLUTE EOSINOPHIL [3]: 0 CELLS/uL
ABSOLUTE LYMPHOCYTE [3]: 15645.5 CELLS/uL
ABSOLUTE MONOCYTE [3]: 363.5 CELLS/uL
ABSOLUTE SEGMENTED NEUTROPHIL [3]: 1824.33 CELLS/uL
BASOPHIL [3]: 0%
EOSINOPHIL [3]: 0%
ERYTHROCYTE COUNT [3]: 5.47 x10E6/uL
HEMATOCRIT [3]: 34.7%
HEMOGLOBIN [3]: 13.57 G/DL
LYMPHOCYTE [3]: 88%
MEAN CORPUSCULAR HEMOGLOBIN CONCENTRATION [3]: 39.12 G/DL
MEAN CORPUSCULAR VOLUME [3]: 63.42 fL
NUCLEATED RED BLOOD CELLS [3]: 0 /100WBC
ALANINE AMINOTRANSFERASE [3]: 47.67 u/L
ALBUMIN [3]: 4.43 G/DL
ALKALINE PHOSPHATASE [3]: 355.83 u/L
ASPARTATE AMINOTRANSFERASE [3]: 100.33 u/L
BLOOD UREA NITROGEN [3]: 8.17 mg/dL
CARBON DIOXIDE [3]: 21.33 mmol/L
CHOLESTEROL [3]: 77.33 mg/dL
CREATINE PHOSPHOKINASE [3]: 740.17 u/L
CREATININE [3]: 0.18 mg/dL
LACTATE DEHYDROGENASE [3]: 327.83 u/L
PHOSPHORUS [3]: 12.3 mg/dL
TOTAL BILIRUBIN [3]: 0.22 mg/dL
TOTAL PROTEIN [3]: 5.92 G/DL
ABSOLUTE EOSINOPHIL (100 mg/kg, 24 h, dose level M1, time 1 day): 24.83 CELLS/uL
